The source of these data is ChEMBL document CHEMBL4000253 (Bioorg Med Chem, 2017).

As a reminder, the IC50 is the point on the concentration scale where inhibition reaches its midpoint. In general, inhibition refers to the relative decrease from the control value, in per cent. The Ki is a dissociation constant, usually derived from enzyme kinetics or from competition with a known ligand.

Active and inactive are the calls of the source. The calls are words filed in the database; no cut-off is given here.

In data set [1] the test system is B16-F10. Kind of data set: Cytotoxicity against mouse B16F10 cells assessed as decrease in cell viability at >50 uM after 48 hrs by MTT assay. It counts as cell-based. The following applies: b16-f10, 48 h. For orientation: Tetrazolium assays rely on reduction of a dye to a coloured formazan, in cell work by metabolically active cells.
The target in data set [2] is T1, Mushroom tyrosinase (Agaricus bisporus, UniProt O42713+Q00024+C7FF04+C7FF05). Kind of data set: Inhibition of mushroom tyrosinase using L-DOPA as substrate assessed as decrease in dopachrome formation preincubated for 10 mins followed by substrate addition by spectrophotometric method.
The target of data set [3] is T2, Tyrosinase (Mus musculus) (UniProt P11344).
T2 sequence (whole entry): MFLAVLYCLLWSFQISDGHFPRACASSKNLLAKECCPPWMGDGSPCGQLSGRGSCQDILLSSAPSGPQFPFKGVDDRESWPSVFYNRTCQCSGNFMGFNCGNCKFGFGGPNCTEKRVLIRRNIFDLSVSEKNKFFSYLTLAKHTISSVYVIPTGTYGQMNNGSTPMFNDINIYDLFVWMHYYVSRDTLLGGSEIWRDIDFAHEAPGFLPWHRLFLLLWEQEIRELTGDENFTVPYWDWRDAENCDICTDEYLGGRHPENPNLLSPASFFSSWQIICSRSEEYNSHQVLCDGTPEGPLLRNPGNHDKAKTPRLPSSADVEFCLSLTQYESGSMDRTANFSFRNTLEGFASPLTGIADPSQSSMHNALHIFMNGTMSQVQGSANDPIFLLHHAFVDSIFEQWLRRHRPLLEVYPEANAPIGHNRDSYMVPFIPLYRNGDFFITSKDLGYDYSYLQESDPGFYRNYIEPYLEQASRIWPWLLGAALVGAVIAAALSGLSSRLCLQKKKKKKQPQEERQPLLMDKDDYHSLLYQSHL
The experiment in a line: Inhibition of tyrosinase in alpha-MSH-stimulated mouse B16F10 cells assessed as decrease in melanin content at 10 to 50 uM after 48 hrs.

Data set [4] deals with B16-F10. The experiment in a line: Cytotoxicity against mouse B16F10 cells assessed as decrease in cell viability at <50 uM after 48 hrs by MTT assay. It is filed as cell-based. The following applies: b16-f10, 48 h.
Data set [5] addresses T3, Mushroom tyrosinase (Agaricus bisporus) (UniProt O42713+Q00024+C7FF04+C7FF05). The experiment in a line: Uncompetitive inhibition of mushroom tyrosinase using 0.3 to 1 mM L-DOPA as substrate assessed as decrease in dopachrome formation preincubated for 10 mins followed by substrate addition by Lineweaver-Burk plot analysis.
In data set [6] the target is T2, Tyrosinase (Mus musculus). Kind of data set: Inhibition of tyrosinase in alpha-MSH-stimulated mouse B16F10 cells assessed as decrease in melanin content after 48 hrs.
Data set [7] deals with T2, Tyrosinase (Mus musculus). The experiment in a line: Inhibition of tyrosinase in alpha-MSH-stimulated mouse B16F10 cells assessed as residual activity at 10 uM preincubated for 48 hrs followed by L-DOPA addition relative to control.
For data set [8], the target named is T2, Tyrosinase (Mus musculus). Kind of data set: Inhibition of tyrosinase in alpha-MSH-stimulated mouse B16F10 cells assessed as residual activity at 50 uM preincubated for 48 hrs followed by L-DOPA addition relative to control.
In data set [9] the target is T3, Mushroom tyrosinase (Agaricus bisporus). The experiment in a line: Potency index, ratio of kojic acid IC50 to test compound IC50 for mushroom tyrosinase.
In data set [10] the target is T2, Tyrosinase (Mus musculus). The experiment in a line: Inhibition of tyrosinase in alpha-MSH-stimulated mouse B16F10 cells assessed as residual activity at 25 uM preincubated for 48 hrs followed by L-DOPA addition relative to control.
Data set [11] addresses T2, Tyrosinase (Mus musculus). Kind of data set: Inhibition of tyrosinase in alpha-MSH-stimulated mouse B16F10 cells preincubated for 48 hrs followed by L-DOPA addition.
The target of data set [12] is T2, Tyrosinase (Mus musculus). Kind of data set: Inhibition of tyrosinase in alpha-MSH-stimulated mouse B16F10 cells up to 50 uM preincubated for 48 hrs followed by L-DOPA addition.
For data set [13], the target named is T2, Tyrosinase (Mus musculus). Kind of data set: Inhibition of tyrosinase in alpha-MSH-stimulated mouse B16F10 cells assessed as decrease in melanin content up to 50 uM after 48 hrs.
Data set [14] deals with T2, Tyrosinase (Mus musculus). The experiment in a line: Inhibition of tyrosinase in alpha-MSH-stimulated mouse B16F10 cells at 10 to 50 uM preincubated for 48 hrs followed by L-DOPA addition and subsequent incubation in dark measured after 1 hr by zymographic method.
Data set [15] has as its target T2, Tyrosinase (Mus musculus). The experiment in a line: Inhibition of tyrosinase in alpha-MSH-stimulated mouse B16F10 cells at 25 uM preincubated for 48 hrs followed by L-DOPA addition relative to control.
The target in data set [16] is T2, Tyrosinase (Mus musculus). The experiment in a line: Inhibition of tyrosinase in alpha-MSH-stimulated mouse B16F10 cells at 10 uM preincubated for 48 hrs followed by L-DOPA addition relative to control.
Data set [17] deals with T1, Mushroom tyrosinase. Kind of data set: Competitive inhibition of mushroom tyrosinase using 0.3 to 1 mM L-DOPA as substrate assessed as decrease in dopachrome formation preincubated for 10 mins followed by substrate addition by Lineweaver-Burk plot analysis.

In the case of `O=c1oc2cc(O)cc(O)c2cc1-c1cc(Br)cs1`, the Activity result is “Toxic” in the data set with B16-F10 [1]; “Non-Toxic” with B16-F10 [4]; 94.3% in data set [7]; 27.7% in [8]; 78.5% in data set [10]. In addition, the IC50 at Mushroom tyrosinase [2] was 0.38 µM. In data set [3], the inhibition entry is “Active”. For the same compound, in [5], the Kis was determined as 0.128 µM. Moreover, the inhibition result in data set [6] and in [11] was “Dose-dependent effect” in each case. Moreover, the Ratio IC50 in data set [9] amounted to 50.
`O=c1oc2cc(O)ccc2cc1-c1cc(Br)cs1`: the half-maximal inhibitory concentration (IC50) at Mushroom tyrosinase [2] is 31.8 µM.
Take `O=c1oc2cc(O)cc(O)c2cc1-c1ccccc1`: the half-maximal inhibitory concentration (IC50) at Mushroom tyrosinase [2] was 408.37 µM.
As for `O=c1oc2c(O)c(O)ccc2cc1-c1cc(Br)cs1`, at Mushroom tyrosinase [2], the half-maximal inhibitory concentration (IC50) is 259.03 µM.
With `O=c1oc2c(O)cccc2cc1-c1cc(Br)cs1`, at Mushroom tyrosinase [2], the IC50 was greater than 1000 µM.
For the compound `O=c1oc2cc(O)cc(O)c2cc1-c1ccsc1`, the IC50 at Mushroom tyrosinase [2] is 0.19 µM. For the same compound, the inhibition entry in data set [12] and in data set [13] was “inactive” in each case.
As to `O=c1oc2cc(O)cc(O)c2cc1-c1ccc(Br)cc1`, the inhibition result in [14] and in [3] was “Active” each time. Moreover, the IC50 at Mushroom tyrosinase [2] was 1.05 µM. Also, the inhibition is 51.8% in data set [15], 18.1% in data set [16], “Dose-dependent effect” in [6] and “Dose-dependent effect” in data set [11].
`O=c1oc2cc(O)cc(O)c2cc1-c1cccs1`: the Ki at Mushroom tyrosinase [17] was determined as 0.24 µM. Besides, the Activity result in the data set with B16-F10 [1] is “Toxic”; with B16-F10 [4] it was “Non-Toxic”. Further, the IC50 at Mushroom tyrosinase [2] amounted to 0.15 µM. The inhibition entry in data set [12] and in [13] was “inactive” in each case. Besides, in data set [9], the Ratio IC50 came out at 120.
Take `O=c1oc2cc(O)ccc2cc1-c1cccs1`: on Mushroom tyrosinase [2], the IC50 is greater than 1000 µM.
Consider `COc1ccc2oc(=O)c(-c3cccs3)cc2c1`, for which the IC50 on Mushroom tyrosinase [2] is greater than 1000 µM.
Same read-out and setting: to `COc1ccc2oc(=O)c(-c3cc(Br)cs3)cc2c1` belongs greater than 1000 µM; to `O=c1oc2ccc(O)cc2cc1-c1cccs1`, greater than 1000 µM.
